Measurements as given in patent publication US11525155B2, “Stabilisation of biological samples” (QIAGEN GmbH, priority 2013, dated 2022).
Non-standard residues stand in square brackets, D forms with d. *: point of attachment. Nle = CCCC[C@H](N)C(=O)O; Cbz = O=C(OCc1ccccc1)*; CH2F = FC*

Key:
caspase-3 = target: T1, caspase-3 (Homo sapiens, UniProt P42574); conditions: cited from earlier work
T1 sequence (P42574 29-175 limits assumed): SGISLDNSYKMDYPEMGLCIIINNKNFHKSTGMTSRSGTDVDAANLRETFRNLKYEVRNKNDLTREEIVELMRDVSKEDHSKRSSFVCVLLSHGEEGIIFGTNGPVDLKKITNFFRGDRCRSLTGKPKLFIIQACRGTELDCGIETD
T1 sequence (P42574 176-277 limits assumed): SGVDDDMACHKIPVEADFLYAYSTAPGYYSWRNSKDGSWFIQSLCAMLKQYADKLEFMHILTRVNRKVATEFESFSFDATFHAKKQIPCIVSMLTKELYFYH

caspase-7 = target: T2, caspase-7 (Homo sapiens, UniProt P55210); conditions: cited from earlier work
T2 sequence (P55210 24-198 limits assumed): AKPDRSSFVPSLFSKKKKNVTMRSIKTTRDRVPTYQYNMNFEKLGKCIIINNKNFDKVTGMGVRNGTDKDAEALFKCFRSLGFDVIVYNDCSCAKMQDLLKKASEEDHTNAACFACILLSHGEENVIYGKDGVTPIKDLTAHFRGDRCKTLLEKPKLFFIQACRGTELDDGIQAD
T2 sequence (P55210 207-303 limits assumed): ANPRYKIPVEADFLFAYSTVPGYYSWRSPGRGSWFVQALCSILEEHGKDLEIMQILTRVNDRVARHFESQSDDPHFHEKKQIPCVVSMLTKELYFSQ

[1] = tested on: transcripts of FOS, IL1B, IL8 and TP53; assay: Transcript level stabilisation in blood samples, real time RT-PCR monoplex assays; format: cell-based; conditions: EDTA blood, 2% (w/v) N-methylacetamide, one and three days at RT
18S ribosomal DNA = assay: Stabilization of extracellular nucleic acid population in whole blood, 18S rDNA qPCR (66 bp and 500 bp amplicon); format: cell-based, human; conditions: 7.2 mg/ml K2 EDTA, 3 and 6 days RT
Description: Blood obtained from donors was collected into 10 ml K2 EDTA tubes (BD). 4.5 ml of the respectively collected blood was mixed with 0.9 ml of different stabilization solutions (see below examples on the details of the tested stabilization solutions).
All stabilized blood samples were set up in triplicates per condition and test time point. At time point 0 (reference), immediately after mixing the stabilization solution and blood, plasma was generated and the circulating extracellular DNA was extracted. The residual stabilized blood sample was stored for three days and six days at room temperature.
As a reference control, the EDTA stabilized blood sample (collected in K2 EDTA tubes without further additives) was also stored for 3 and 6 days. […] DMAA stabilized samples as tested herein always included additionally a caspase inhibitor. No DMAA containing stabilizing solutions without caspase inhibitor were tested in the subsequent examples.
Plasma was generated from the stabilized and unstabilized (EDTA) blood samples by inverting the blood containing tubes for four times. Then, the tubes were centrifuged for 10 minutes at 1900×g at 4° C. 2.5 ml of the plasma fraction was transferred into a fresh 15 ml falcon tube and centrifuged for 10 minutes at 16.000×g at 4° C. 2 ml of the respectively cleared plasma was used for extracellular nucleic acid isolation using the QIAamp circulating nucleic acid kit (QIAGEN) according to the manufacturer's instructions.
The isolated extracellular DNA was analyzed using two different qPCR assays, targeting different fragment lengths of the 18S ribosomal DNA:
Cycle threshholds of the individual samples were translated into amount of gDNA in the eluate, according to a gDNA standard curve. The gDNA amount of the storage time points was compared to the time zero gDNA level from the same donor and is shown as fold increase in the figures. Especially the increase of the 500 bp fragment in the plasma fraction of the blood sample after storage is an indication for a lysis/destruction of white blood cells. Thus, the lower the amount of released 500 bp DNA, the better the performance of the stabilization method.
The figures corresponding to the subsequently described examples show the increase of DNA relative to time point 0 with the different stabilization solutions (fold change) using different amplicon lengths of 18S rRNA gene. Bars indicate the mean of the triplicate samples per condition and test time point.

[2] = buffer; cited from earlier work
red blood cells = assay: Hemolysis in stabilized blood samples; format: cell-based; conditions: butanamide 0.5% (w/v) to 3.5% (w/v) in blood mixture
white blood cells [3] = assay: Microscopic evaluation of blood smears (cell morphology/integrity); format: cell-based; conditions: EDTA blood, final 5% v/v formamide, 0.5× MOPS pH5.5, RT up to three days
white blood cells [4] = assay: Flow cytometry analysis of cell integrity; format: cell-based; conditions: EDTA blood mixed with test solution (5% v/v formamide)
Description: FIG. 6: Flow cytometry (FC) analysis of peripheral blood samples of one donor of example 1. Blood was directly drawn into BD EDTA tubes and PreAnalytiX PAXgene Blood RNA Tubes (PAXgene). […] Immediately after collection and treatment of samples, blood aliquots were analysed without incubation (0 h samples), while remaining samples were incubated at RT for one and three days (24 h and 72 h samples) prior to FC analysis. Shown per picture are the size (x-axis=forward scatter) and granularity (y-axis=sideward scatter) of 10,000 events per sample aliquot tested that contain signals of cells, cell debris and particles. The different populations of white blood cells that are distinguishable from each other in FC analysis (L, M, NG) and the cell-free fraction (D) are indicated by circles for the (+) control (EDTA) sample. They are as follows:
Where indicated, cell morphology was investigated by microscopic evaluation of blood smears and cell integrity by flow cytometry (FC).
The results obtained by microscopic analysis were verified by the analysis of cell integrity with flow cytometry. […] However, not all white blood cells may be equally well stabilized during longer stabilization periods. However, intact cells were detected and the detected cell populations are important for certain diagnostic applications which aim e.g. at the analysis of lymphocytes.

calpain II = target: T3, calpain II (Homo sapiens, UniProt P17655); conditions: cited from earlier work
T3 sequence (P17655 1-700): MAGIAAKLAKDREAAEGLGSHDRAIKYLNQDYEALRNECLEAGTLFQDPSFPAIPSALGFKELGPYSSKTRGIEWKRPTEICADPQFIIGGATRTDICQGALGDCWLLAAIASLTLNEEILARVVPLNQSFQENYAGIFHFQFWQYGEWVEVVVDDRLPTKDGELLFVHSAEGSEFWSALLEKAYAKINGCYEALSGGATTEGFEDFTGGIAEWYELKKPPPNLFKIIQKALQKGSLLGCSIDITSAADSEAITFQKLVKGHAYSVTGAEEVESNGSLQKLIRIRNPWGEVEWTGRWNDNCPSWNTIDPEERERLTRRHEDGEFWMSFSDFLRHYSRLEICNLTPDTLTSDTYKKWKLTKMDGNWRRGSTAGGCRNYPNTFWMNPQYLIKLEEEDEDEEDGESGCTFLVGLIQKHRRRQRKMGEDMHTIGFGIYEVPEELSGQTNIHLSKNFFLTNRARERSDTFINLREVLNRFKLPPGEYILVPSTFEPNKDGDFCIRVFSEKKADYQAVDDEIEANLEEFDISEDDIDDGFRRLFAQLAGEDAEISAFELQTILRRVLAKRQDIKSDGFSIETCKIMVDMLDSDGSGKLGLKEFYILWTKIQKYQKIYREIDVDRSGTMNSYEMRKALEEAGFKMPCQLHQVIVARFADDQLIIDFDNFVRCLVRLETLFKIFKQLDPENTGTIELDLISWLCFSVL
T3 sequence (P04632 1-268 partner): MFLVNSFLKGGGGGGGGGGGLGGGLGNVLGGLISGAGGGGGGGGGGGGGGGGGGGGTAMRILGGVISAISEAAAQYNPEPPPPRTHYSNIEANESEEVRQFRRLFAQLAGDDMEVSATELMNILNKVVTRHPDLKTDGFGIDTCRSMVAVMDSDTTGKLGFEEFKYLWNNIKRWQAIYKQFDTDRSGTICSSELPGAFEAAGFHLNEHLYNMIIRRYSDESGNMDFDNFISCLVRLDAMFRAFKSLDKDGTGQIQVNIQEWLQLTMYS

cathepsin L = cathepsin L (Homo sapiens, UniProt P07711); conditions: cited from earlier work
cathepsin L, sequence (P07711 114-333, species assumed): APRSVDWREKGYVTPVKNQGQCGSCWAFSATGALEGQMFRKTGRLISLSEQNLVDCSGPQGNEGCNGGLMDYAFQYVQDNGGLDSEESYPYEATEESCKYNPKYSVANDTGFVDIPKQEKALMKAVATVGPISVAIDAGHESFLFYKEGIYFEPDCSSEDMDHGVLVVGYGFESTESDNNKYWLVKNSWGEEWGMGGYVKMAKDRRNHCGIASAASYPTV

calpain I = target: T4, calpain I (Homo sapiens, UniProt P07384); conditions: cited from earlier work
T4 sequence (P07384 1-714): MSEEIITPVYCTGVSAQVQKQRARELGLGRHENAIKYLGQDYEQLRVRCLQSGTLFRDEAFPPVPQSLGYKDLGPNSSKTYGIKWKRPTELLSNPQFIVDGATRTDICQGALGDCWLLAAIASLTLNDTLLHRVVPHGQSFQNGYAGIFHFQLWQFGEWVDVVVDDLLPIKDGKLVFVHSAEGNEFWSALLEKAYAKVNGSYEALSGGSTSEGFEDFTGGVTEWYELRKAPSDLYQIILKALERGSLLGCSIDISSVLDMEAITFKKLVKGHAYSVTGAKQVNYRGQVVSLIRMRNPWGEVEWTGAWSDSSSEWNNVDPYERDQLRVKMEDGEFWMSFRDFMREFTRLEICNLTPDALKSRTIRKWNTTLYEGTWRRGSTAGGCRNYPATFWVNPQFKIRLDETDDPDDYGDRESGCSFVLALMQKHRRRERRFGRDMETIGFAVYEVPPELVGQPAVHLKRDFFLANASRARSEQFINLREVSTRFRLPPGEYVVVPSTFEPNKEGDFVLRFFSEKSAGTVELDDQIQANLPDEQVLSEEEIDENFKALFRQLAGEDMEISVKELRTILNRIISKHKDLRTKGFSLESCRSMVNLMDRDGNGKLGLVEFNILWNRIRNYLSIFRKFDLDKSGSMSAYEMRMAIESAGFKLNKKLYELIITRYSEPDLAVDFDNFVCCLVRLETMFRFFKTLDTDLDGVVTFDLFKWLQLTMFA
T4 sequence (P04632 1-268 partner): T3 sequence (P04632 1-268 partner)

apoptosis = conditions: cited from earlier work
[5] = amide in different concentrations with 1 μM Quinoline-Val-Asp-CH2-OPH (caspase inhibitor)
[6] = amide alone in different concentrations, without caspase inhibitor

COC[C@@H]1CCCN1S(=O)(=O)c1ccc2c(c1)C(=O)C(=O)N2 [Caspase-3/7 Inhibitor I]
Ki (caspase-3): 60 nM
Ki (caspase-7): 170 nM

CNC(C)=O [N-methylacetamide]
stabilization of transcript levels of FOS, IL1B, IL8, TP53 [1]: effective in stabilizing transcript levels for up to three days
increase in 18S rDNA in plasma (stabilization of extracellular nucleic acid population) (18S ribosomal DNA; [5]): significantly reduced increase in 18S rDNA

CNC=O [N-methylformamide]
increase in 18S rDNA in plasma (stabilization of extracellular nucleic acid population) (18S ribosomal DNA; [5]): significantly reduced increase in 18S rDNA

N=c1sc2c(n1CC(=O)c1ccc([N+](=O)[O-])cc1)CCCC2 [Pifithrin-α, p-Nitro]
t1/2 [2]: biological systems (t1/2 = 8h in neuron culture medium at 37° C).

CC(N)=O [acetamide]
increase in 18S rDNA in plasma (stabilization of extracellular nucleic acid population) (18S ribosomal DNA; [5]): significantly reduced increase in 18S rDNA

CCCC(N)=O [butanamide]
hemolysis of the red blood cells contained in the blood sample (red blood cells): prevents the hemolysis
increase in 18S rDNA in plasma (stabilization of extracellular nucleic acid population) (18S ribosomal DNA; [6]): significantly reduced increase in 18S rDNA
increase in 18S rDNA in plasma (stabilization of extracellular nucleic acid population) (18S ribosomal DNA; [5]): uniform stabilization results were obtained

NC=O [formamide]
white blood cell integrity, microscopy of blood smears (white blood cells [3]): did not act lytic on WBC
increase in 18S rDNA in plasma (stabilization of extracellular nucleic acid population) (18S ribosomal DNA; [6]): significantly reduced increase in 18S rDNA
increase in 18S rDNA in plasma (stabilization of extracellular nucleic acid population) (18S ribosomal DNA; [5]): uniform stabilization results were obtained
lysis of lymphocytes and monocytes, flow cytometry (white blood cells [4]; RT up to three days): not affected by lysis
lysis of neutrophilic granulocytes, flow cytometry (white blood cells [4]; longer storage at RT): Some lysis appeared to have occurred

CCC(N)=O [propanamide]
increase in 18S rDNA in plasma (stabilization of extracellular nucleic acid population) (18S ribosomal DNA; [5]): significantly reduced increase in 18S rDNA

Ac-Leu-Leu-[Nle]-aldehyde
Ki (calpain II): 150 nM
Ki (cathepsin L): 0.5 nM
Ki (calpain I): 190 nM

Cbz-Leu-Leu-Tyr-CH2F [Calpain Inhibitor IV]
k2 calpain II (calpain II; irreversible inhibitor): 28,900 M-1s-1). Also acts as an inhibitor of cathepsin L (k2 =
k2 cathepsin L (cathepsin L): 680,000 M-1s-1).

Quinoline-Val-Asp-CH2-OPH [Q-VD-OPh]
effectiveness in preventing apoptosis compared with Z-VAD-FMK (apoptosis): even more effective
